The values that follow come from article doi:10.1101/2020.07.01.182642v1 (biorxiv, 2020).

Details in all cases: binder
Experiment [1] has as its target CAMK2B (Homo sapiens, UniProt Q13554).
Experiment [2] addresses PIM2 (Homo sapiens, UniProt Q9P1W9).
For experiment [3], the target named is MAPK8 (Homo sapiens, UniProt P45983).
Experiment [4] concerns the target FES (Homo sapiens, UniProt P07332).
In experiment [5] the target is PRKAA2 (Homo sapiens, UniProt P54646).
Experiment [6] has as its target DCLK1 (Homo sapiens, UniProt O15075).
Experiment [7] has as its target PRKG1 (Homo sapiens, UniProt Q13976).
The target in experiment [8] is CSNK2A2 (Homo sapiens, UniProt P19784).
Experiment [9] concerns the target CDC42BPB (Homo sapiens, UniProt Q9Y5S2).
Experiment [10] deals with T1, PKMYT1 (Homo sapiens, UniProt Q99640).
T1 sequence (Q99640 1-499): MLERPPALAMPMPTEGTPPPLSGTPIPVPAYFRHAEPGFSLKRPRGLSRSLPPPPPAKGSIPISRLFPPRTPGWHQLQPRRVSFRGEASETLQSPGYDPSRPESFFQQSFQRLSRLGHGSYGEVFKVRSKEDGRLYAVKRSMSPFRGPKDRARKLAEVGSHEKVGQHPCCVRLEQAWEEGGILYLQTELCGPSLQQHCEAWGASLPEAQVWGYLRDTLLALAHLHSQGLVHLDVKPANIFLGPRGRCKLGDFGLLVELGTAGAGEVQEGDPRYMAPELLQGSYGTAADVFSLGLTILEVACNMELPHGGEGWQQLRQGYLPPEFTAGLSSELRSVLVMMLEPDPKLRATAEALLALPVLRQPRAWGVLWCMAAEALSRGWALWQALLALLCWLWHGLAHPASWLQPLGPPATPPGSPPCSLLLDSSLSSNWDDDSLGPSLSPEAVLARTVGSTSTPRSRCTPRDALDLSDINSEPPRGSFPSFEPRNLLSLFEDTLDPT

Experiment [11] concerns the target PRKD3 (Homo sapiens, UniProt O94806).
For experiment [12], the target named is STK38 (Homo sapiens, UniProt Q15208).
Experiment [13] deals with MAPK13 (Homo sapiens, UniProt O15264).
For experiment [14], the target named is MAP4K4 (Homo sapiens, UniProt O95819).
Experiment [15] has as its target MAPK9 (Homo sapiens, UniProt P45984).
The target in experiment [16] is IKBKB (Homo sapiens, UniProt O14920).
Experiment [17] concerns the target CDK4 (Homo sapiens, UniProt P11802).
In experiment [18] the target is CDC42BPG (Homo sapiens, UniProt Q6DT37).
Experiment [19] has as its target STK38L (Homo sapiens, UniProt Q9Y2H1).
The target of experiment [20] is BMP2K (Homo sapiens, UniProt Q9NSY1).
The target in experiment [21] is AKT3 (Homo sapiens, UniProt Q9Y243).
In experiment [22] the target is SLK (Homo sapiens, UniProt Q9H2G2).
Experiment [23] deals with CDK17 (Homo sapiens, UniProt Q00537).
Experiment [24] deals with PDPK1 (Homo sapiens, UniProt O15530).
Experiment [25] deals with GSG2 (Homo sapiens, UniProt Q8TF76).
The target in experiment [26] is ACVR2B (Homo sapiens, UniProt Q13705).

Sequence of STK38L (Q9Y2H1 whole entry): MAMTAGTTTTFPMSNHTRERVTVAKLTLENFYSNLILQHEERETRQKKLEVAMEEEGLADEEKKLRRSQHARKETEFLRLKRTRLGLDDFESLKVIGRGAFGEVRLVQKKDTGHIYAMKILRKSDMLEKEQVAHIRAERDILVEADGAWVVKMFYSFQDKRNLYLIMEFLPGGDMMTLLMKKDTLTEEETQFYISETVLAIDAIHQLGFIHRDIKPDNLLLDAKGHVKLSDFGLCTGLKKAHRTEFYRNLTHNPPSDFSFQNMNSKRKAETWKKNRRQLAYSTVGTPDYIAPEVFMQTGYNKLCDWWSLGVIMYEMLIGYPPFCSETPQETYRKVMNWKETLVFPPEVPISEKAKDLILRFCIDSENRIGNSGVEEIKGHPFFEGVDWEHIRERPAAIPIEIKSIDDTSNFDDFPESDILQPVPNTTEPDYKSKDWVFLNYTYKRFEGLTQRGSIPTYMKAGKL
Sequence of SLK (Q9H2G2 whole entry): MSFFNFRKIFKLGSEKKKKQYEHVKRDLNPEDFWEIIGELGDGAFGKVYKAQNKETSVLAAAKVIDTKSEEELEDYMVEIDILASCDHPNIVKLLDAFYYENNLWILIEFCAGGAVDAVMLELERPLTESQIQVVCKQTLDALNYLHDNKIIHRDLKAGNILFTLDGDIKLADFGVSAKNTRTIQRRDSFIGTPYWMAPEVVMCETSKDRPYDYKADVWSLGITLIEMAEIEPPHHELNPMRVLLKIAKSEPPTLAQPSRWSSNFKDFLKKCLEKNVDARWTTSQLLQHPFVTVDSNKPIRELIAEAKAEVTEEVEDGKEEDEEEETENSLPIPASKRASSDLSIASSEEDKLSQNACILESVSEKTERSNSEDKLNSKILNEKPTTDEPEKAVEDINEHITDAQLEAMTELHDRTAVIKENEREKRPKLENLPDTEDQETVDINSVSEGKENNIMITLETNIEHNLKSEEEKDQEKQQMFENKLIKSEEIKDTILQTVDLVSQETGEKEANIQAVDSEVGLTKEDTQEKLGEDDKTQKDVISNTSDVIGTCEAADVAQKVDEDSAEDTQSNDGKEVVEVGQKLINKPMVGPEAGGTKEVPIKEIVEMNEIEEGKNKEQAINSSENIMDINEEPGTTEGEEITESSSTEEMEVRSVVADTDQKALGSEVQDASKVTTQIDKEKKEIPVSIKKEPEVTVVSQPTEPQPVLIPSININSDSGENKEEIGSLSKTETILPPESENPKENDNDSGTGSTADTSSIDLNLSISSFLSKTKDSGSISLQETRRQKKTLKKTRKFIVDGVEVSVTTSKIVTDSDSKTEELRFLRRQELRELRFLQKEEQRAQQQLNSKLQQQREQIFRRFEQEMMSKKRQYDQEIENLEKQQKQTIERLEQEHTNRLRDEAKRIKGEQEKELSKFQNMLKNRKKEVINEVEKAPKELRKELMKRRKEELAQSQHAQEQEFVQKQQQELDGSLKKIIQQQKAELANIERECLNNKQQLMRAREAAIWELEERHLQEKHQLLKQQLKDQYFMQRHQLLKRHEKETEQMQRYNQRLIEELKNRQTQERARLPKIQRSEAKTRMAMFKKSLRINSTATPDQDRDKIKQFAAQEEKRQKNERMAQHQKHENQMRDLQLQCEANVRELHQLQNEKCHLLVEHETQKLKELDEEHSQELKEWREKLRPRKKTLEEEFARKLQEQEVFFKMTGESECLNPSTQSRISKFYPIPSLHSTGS
Sequence of MAPK9 (P45984 whole entry): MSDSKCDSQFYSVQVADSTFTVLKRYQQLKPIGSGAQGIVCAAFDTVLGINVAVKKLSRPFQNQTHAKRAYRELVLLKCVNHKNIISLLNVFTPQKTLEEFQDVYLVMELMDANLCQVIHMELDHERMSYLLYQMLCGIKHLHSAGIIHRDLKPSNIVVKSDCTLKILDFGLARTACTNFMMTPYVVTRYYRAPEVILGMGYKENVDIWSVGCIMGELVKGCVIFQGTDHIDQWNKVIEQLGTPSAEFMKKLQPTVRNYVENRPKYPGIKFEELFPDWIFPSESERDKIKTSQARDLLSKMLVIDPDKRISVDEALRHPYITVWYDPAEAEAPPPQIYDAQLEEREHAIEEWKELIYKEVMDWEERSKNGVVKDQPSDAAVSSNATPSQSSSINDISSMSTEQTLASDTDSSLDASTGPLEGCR
Sequence of CSNK2A2 (P19784 whole entry): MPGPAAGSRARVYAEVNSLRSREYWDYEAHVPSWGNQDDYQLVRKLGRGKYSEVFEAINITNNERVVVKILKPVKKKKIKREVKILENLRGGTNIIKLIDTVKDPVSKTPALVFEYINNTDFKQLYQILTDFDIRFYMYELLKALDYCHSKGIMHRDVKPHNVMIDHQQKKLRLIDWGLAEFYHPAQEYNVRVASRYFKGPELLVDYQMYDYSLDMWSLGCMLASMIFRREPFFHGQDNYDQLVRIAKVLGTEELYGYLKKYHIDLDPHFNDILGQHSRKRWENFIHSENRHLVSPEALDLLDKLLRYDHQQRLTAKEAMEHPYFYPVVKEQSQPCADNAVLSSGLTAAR
Sequence of FES (P07332 whole entry): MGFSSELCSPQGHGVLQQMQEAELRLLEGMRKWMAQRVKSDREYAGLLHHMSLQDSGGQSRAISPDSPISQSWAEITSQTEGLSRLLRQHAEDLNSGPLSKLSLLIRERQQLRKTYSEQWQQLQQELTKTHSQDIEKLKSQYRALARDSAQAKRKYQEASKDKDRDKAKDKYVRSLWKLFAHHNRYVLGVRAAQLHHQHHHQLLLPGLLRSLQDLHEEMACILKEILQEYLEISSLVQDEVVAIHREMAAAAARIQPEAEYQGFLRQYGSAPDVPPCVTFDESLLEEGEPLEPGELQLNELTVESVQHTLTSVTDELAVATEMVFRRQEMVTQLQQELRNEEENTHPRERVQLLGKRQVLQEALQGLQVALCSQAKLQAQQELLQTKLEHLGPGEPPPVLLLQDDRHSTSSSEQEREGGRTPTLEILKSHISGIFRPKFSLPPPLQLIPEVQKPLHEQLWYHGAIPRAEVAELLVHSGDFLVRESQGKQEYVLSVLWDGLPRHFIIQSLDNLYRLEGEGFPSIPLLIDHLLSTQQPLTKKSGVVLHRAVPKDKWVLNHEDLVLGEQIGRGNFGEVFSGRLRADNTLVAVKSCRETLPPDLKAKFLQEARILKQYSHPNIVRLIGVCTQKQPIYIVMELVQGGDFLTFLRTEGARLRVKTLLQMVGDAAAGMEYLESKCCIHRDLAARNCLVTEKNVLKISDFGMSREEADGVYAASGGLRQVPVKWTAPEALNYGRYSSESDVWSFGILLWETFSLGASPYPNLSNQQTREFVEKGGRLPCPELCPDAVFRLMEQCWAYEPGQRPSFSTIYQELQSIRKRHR
Sequence of PIM2 (Q9P1W9 whole entry): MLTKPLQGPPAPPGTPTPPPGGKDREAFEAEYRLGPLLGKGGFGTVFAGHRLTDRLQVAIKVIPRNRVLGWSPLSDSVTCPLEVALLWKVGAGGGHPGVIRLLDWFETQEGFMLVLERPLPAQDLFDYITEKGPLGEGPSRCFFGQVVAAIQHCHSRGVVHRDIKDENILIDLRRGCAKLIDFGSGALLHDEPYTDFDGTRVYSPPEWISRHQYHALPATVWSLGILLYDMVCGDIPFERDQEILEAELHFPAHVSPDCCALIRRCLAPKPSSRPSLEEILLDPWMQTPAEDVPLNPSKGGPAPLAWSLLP
Sequence of PRKD3 (O94806 whole entry): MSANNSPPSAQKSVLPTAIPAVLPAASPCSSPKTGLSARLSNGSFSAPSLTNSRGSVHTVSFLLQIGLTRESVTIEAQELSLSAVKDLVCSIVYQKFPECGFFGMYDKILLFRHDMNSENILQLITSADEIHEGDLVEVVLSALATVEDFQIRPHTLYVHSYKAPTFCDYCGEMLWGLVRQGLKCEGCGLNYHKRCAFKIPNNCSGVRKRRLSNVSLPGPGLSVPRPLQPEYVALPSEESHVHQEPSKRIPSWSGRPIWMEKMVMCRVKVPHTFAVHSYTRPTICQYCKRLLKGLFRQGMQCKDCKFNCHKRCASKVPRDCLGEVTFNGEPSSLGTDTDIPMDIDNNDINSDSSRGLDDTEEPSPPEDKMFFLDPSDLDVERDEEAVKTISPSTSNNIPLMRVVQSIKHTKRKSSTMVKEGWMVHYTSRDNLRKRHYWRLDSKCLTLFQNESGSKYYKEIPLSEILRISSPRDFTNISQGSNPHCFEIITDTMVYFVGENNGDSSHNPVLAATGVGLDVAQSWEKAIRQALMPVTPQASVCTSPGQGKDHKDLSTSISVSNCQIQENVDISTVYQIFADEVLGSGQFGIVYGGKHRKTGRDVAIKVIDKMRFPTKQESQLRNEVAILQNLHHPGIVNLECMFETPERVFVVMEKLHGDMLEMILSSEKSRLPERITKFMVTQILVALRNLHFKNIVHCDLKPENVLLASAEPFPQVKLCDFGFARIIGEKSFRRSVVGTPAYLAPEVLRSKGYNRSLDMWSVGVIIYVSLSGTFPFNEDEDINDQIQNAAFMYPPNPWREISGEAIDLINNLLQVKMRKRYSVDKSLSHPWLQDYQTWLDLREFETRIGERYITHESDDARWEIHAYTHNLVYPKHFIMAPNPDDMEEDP
Sequence of AKT3 (Q9Y243 whole entry): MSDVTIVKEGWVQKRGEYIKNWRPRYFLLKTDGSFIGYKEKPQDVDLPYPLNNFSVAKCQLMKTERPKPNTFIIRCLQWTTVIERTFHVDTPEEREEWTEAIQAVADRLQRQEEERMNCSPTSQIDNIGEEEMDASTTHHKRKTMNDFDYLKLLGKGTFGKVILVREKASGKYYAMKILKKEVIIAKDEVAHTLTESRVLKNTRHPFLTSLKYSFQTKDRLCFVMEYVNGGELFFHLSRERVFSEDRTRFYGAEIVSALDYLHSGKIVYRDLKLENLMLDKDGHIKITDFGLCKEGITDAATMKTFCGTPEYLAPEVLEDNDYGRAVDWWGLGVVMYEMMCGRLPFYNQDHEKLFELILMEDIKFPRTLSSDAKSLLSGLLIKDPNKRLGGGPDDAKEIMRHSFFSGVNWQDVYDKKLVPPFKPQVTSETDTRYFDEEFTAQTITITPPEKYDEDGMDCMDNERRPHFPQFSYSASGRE

`CCN1/C(=C/C(C)=O)Sc2ccc(OC)cc21` [compound 2, TG003]: the “ΔTm inhibitor 2” value is 0.3 °C in experiment [1]; 3.6 °C in experiment [2]; 0.7 °C in experiment [3]; -0.1 °C in [4]; -0.1 °C in [5]; -0.4 °C in experiment [6]. The “ΔTm inhibitor 2” value is 1.6 °C in [7]; 2.6 °C in experiment [8]; 0.3 °C in experiment [9]; -0.6 °C in experiment [10]; 2.7 °C in experiment [11]; 0.4 °C in [12]. Besides, the “ΔTm inhibitor 2” value in [13] is 0.4 °C; in experiment [14], -0.1 °C; in [15], 0.4 °C; in experiment [16], 0.1 °C; in [17], -0.6 °C; in experiment [18], -1.3 °C. Besides, the “ΔTm inhibitor 2” value in experiment [19] is 0.3 °C; in experiment [20], 0.2 °C; in [21], 0.0 °C; in experiment [22], -0.5 °C; in experiment [23], 0.0 °C; in [24] it was 0.2 °C.
For the compound `CC(=O)c1cccc(-c2cnc3ccc(NCC4CC4)nn23)c1` [compound 1, K00135], the “ΔTm inhibitor 1” value in experiment [1] is 0.2 °C; in [2], 4.7 °C; in experiment [4] it was 0.6 °C; in experiment [5], 1.1 °C; in experiment [6], 0.6 °C; in experiment [25], 6.5 °C. Moreover, the “ΔTm inhibitor 1” value in experiment [8] was found to be 3.3 °C; in [10], 0.9 °C; in [11] it was 0.8 °C; in [12] it was 1.1 °C; in experiment [15], 0.8 °C; in experiment [26], 7.4 °C. For the same compound, the “ΔTm inhibitor 1” value in experiment [18] came out at 0.6 °C; in experiment [19] it was 0.4 °C; in experiment [20], 10.7 °C; in experiment [21] it was 0.4 °C; in experiment [22] it was 2.3 °C.
For the compound `Nc1nccc(-c2ccc3noc(-c4ccc(Cl)cc4)c3c2)n1` [compound 4, K00972], the “ΔTm inhibitor 4” value in [2] was 2.1 °C; in experiment [3] it was 1.0 °C; in [4], 0.3 °C; in experiment [7], 0.5 °C; in experiment [25], 4.0 °C; in experiment [8], 0.9 °C. The “ΔTm inhibitor 4” value came out at 0.2 °C in experiment [9]; 0.1 °C in experiment [10]; 0.5 °C in experiment [13]; 0.2 °C in experiment [14]; 0.9 °C in experiment [15]; 0.0 °C in experiment [26]. Besides, the “ΔTm inhibitor 4” value in experiment [16] was found to be 1.5 °C; in experiment [17] it was 1.5 °C; in experiment [19], 0.9 °C; in [22], 0.5 °C; in experiment [23] it was 0.4 °C; in experiment [24] it was 0.3 °C.
